This is an account of results in paper PMC11596612, “Nine New Glycosylated Compounds from the Leaves of the Medicinal Plant Malus hupehensis” (Molecules, 2024).

The test system of the first experiment is NO production in LPS-activated RAW 264.7 macrophage cells. As to the kind of experiment: Anti-NO activity assay: inhibition of NO production in LPS-activated RAW 264.7 macrophage cells. The class given is cell-based. The conditions noted are these: LPS-activated RAW 264.7 cells; means of three independent replicates; ammonium pyrrolidinedithiocarbamate positive control; read-out: NO production inhibitory activity IC50 (RAW 264.7). As to the method: Using a previously published method, the anti-inflammatory activity of all compounds (1–15) was assessed based on the suppression of NO generation in RAW264.7 cells.
Consider `S=C(S)N1CCCC1` [Ammonium pyrrolidinedithiocarbamate, reference compound], for which the IC50 (as a rule, the concentration that inhibits the measured activity by half) came to 20 ± 0.12 µM.

For the compound `O=C(OC[C@H]1O[C@@H](Oc2cc(O)cc(O)c2C(=O)CCc2ccc(O)cc2)[C@H](O)[C@@H](O)[C@@H]1O)c1ccccc1` [Compound 10, phloridzin 6″-O-benzoate], the IC50 is more than 40 µM. Same read-out and setting: to `O=C(C=Cc1ccccc1)OCC1OC(Oc2cc(O)cc(O)c2C(=O)CCc2ccc(O)cc2)C(O)C(O)C1O` (stereo not shown) [Compound 11, phloridzin 6″-O-cinnamate] belongs more than 40 µM. On the same count and under the same terms, in the case of methylenebisphloridzin [Compound 13] it was more than 40 µM.

The same experiment, now with this note: Mus musculus, RAW264.7; LPS-activated RAW 264.7 cells; means of three independent replicates; ammonium pyrrolidinedithiocarbamate positive control; read-out: NO production inhibitory activity IC50 (RAW 264.7).
`O=C(O[C@H]1[C@H](Oc2cc(O)cc(O)c2C(=O)CCc2ccc(O)cc2)O[C@H](CO)[C@@H](O)[C@@H]1O)c1ccccc1` [Compound 1, malahupinoside C]: the IC50 was more than 40 µM. Still for that read-out and setting: in the case of `O=C(/C=C/c1ccccc1)O[C@H]1[C@H](Oc2cc(O)cc(O)c2C(=O)CCc2ccc(O)cc2)O[C@H](CO)[C@@H](O)[C@@H]1O` [Compound 2, malahupinoside D] it was more than 40 µM; in that of `O=C(/C=C/c1ccc(O)cc1)OC[C@H]1O[C@@H](Oc2cc(O)cc(O)c2C(=O)CCc2ccc(O)cc2)[C@H](O)[C@@H](O)[C@@H]1O` [Compound 3, malahupinoside E], more than 40 µM; in that of `COc1cc(/C=C/C(=O)OC[C@H]2O[C@@H](Oc3cc(O)cc(O)c3C(=O)CCc3ccc(O)cc3)[C@H](O)[C@@H](O)[C@@H]2O)ccc1O` [Compound 4, malahupinoside F], 29.6 µM.

Regarding `COc1cccc2c1oc1c(OC)cc(O)cc12` [Compound 5], the IC50 is more than 40 µM. The same measure, in the same setting: to `COc1cccc2c1oc1c(OC)cc(O)c(OC3OC(CO)C(O)C(O)C3O)c12` (stereo not shown) [Compound 6, fortuneanoside N] belongs more than 40 µM; to `COc1cc(O)c(OC2OC(CO)C(O)C(O)C2O)c2c1oc1ccccc12` (stereo not shown) [Compound 7, fortuneanoside O], more than 40 µM; to `COc1cc(OC)cc(-c2ccccc2OC2OC(CO)C(O)C(O)C2O)c1` (stereo not shown) [Compound 8, fortuneanoside P], more than 40 µM. Take `COc1cc(OC)c(OC2OC(CO)C(O)C(O)C2O)c(-c2ccccc2O)c1` (stereo not shown) [Compound 9, fortuneanoside Q]: the IC50 was more than 40 µM.

In the case of `O=C(/C=C/c1ccc(O)cc1)Oc1ccc(CCC(=O)c2c(O)cc(O)cc2O[C@@H]2O[C@H](CO)[C@@H](O)[C@H](O)[C@H]2O)cc1` [Compound 12, 4-[3-[2-(β-D-Glucopyranosyloxy)-4,6-dihydroxyphenyl]-3-oxopropyl]phenyl(2E)-3-(4-hydroxyphenyl)-2-propenoate], the IC50 was more than 40 µM. As to `COc1cc(O)cc2c1oc1ccccc12` [Compound 14, 2-Hydroxy-4-methoxydibenzofuran], the IC50 is more than 40 µM.

With `COc1cc(OC)cc(-c2ccc(O)c(O[C@@H]3O[C@H](CO)[C@@H](O)[C@H](O)[C@H]3O)c2)c1` [Compound 15, 3′,5′-Dimethoxy-(1,1′-biphenyl)-3,4-diol 3-O-β-D-glucopyranoside], the IC50 is more than 40 µM.
